Molecular target: Carbonic anhydrase 12 (Homo sapiens, UniProt O43570)
Sequence (O43570 whole entry): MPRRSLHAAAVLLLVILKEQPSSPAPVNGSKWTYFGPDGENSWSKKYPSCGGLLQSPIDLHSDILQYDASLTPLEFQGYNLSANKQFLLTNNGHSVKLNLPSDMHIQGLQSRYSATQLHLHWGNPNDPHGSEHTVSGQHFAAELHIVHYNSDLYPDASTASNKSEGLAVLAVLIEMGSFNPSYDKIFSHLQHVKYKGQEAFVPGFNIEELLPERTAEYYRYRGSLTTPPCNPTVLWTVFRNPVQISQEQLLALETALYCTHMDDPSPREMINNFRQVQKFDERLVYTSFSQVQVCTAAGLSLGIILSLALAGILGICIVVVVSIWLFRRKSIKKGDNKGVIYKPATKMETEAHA

Ki [nM]	SMILES
37	CNc1ccc(S(N)(=O)=O)cc1
58	NNc1ccccc1S(N)(=O)=O
3.4	N[S+]([O-])c1ccc(S(=O)(=O)Nc2cccc3c(Cl)c[nH]c23)cc1 (stereo not given)
11	CN(N)c1ccc(S(N)(=O)=O)cc1
3.5	Nc1ccc(S(=O)(=O)NCc2ccc(S(N)(=O)=O)cc2)cc1
11	Nc1ccc(S(N)(=O)=O)cc1I
85	Nc1ccc(S(=O)(=O)Nc2nnc(S(N)(=O)=O)s2)cc1
36	NS(=O)(=O)c1nnc(-c2ccccc2Cl)s1
3.4	Nc1nccc(Nc2ccc(S(N)(=O)=O)cc2)n1
0.85	Nc1ccccc1S(N)(=O)=O
20	Nc1ccc(S(N)(=O)=O)cc1Br
4	Cn1nc(S(N)(=O)=O)sc1=N
55	NS(=O)(=O)c1ccc(CCO)cc1
1.1	Nc1ccc(S(N)(=O)=O)cc1F
220	NS(=O)(=O)c1ccc(CO)cc1
3.1	Nc1ccc(S(N)(=O)=O)cc1Cl
4.5	Nc1ccc(S(=O)(=O)NCCc2ccc(S(N)(=O)=O)cc2)cc1
34	NS(=O)(=O)c1ccc(C(=O)O)cc1 [CARZENIDE]
0.3	NCc1ccc(S(N)(=O)=O)cc1 [MAFENIDE]
1.8	Cc1ccc(S(N)(=O)=O)cc1 [P-TOLUENESULFONAMIDE]

Source: ChEMBL document CHEMBL1141984, “Carbonic anhydrase inhibitors. Inhibition of the transmembrane isozyme XII with sulfonamides-a new target for the design of antitumor and antiglaucoma drugs?” (Bioorg Med Chem Lett, 2005)
